“Also recorded” adds a separate entry of the source.
Experiments:
[1] = Formalin-induced pain test (hind paw licking time); type: in vivo
Experimental: Investigations of the effects of PT2 on pain induced by phenylquinolic acid (PQ writhing) and formalin have been made. In both the PQ writhing test (FIG. 3) and the formalin algesia test (FIG. 4), PT2 administered by intraperitoneal inoculation reduced pain and compared favourably with pain reduction by aspirin (oral, 100 mg/kg). In these tests, the EPUFA was administered 30 min before the pain stimulus and effects recorded over the following 20 min.
Investigations of PT2 in the formalin-induced analgesia model looking specifically at the biphasic response have also been undertaken and are shown in Table 1. It is well documented that in this model, aspirin suppresses only pain related to the inflammatory process (15-20 mins post-administration of formalin), while morphine suppresses pain in both phases of the response (0-5 min and 15-20 min).
Compounds were administered intraperationedly (ip) 30 min prior to the administration of formalin (0.02 ml, 1% solution) via subplantar injection into the right hind paw. Reduction of the induced hind paw licking time recorded during the following 0-5 min period (Phase I response) or 15-20 min period (Phase II response) was determined. The data in Table 1 are the mean responses of 5 animals in each group.

[2] = test system: HUVEC; test: Agonist-enhanced neutrophil adherence to HUVEC; type: cell-based, human; conditions: 20 μmol/l, 1 hr pre-treatment, TNF 4 hr
Experimental: FIG. 11 is a representation showing effect of β-oxa; β-thia and natural PUFA on TNF-enhanced neutrophil adherence to HUVEC. HUVEC were pre-treated with the fatty acids (20 μmol/l) for 60 min at 37° C. before being stimulated with TNF (125 U/200 μl medium) for 4 hr at 37° C. The cells were then co-incubated with neutrophils (5×10^5 cells/well) at 37° C. for 30 min and the degree of neutrophil adherence quantitated. The results are expressed as % of control and represent the mean±SEM of three separate experiments each performed in triplicate. * p<0.05, ***p<0.001, for significant differences between pre-treatment with fatty acid and control (one-way analysis of variance followed by the Dunnett test for multiple comparisons).
Adhesion of neutrophils, prepared by the rapid-single-step method (Ferrante et al, J. Immun. Methods 36:109-117, 1980), to HUVEC isolated from umbilical cords was carried out essentially as described (Huang et al, 1997 supra).
The magnitude of the suppressive effect of -MP3 was dependent on-pre-treatment time and concentration with significant effects observed with a pre-treatment time of 1 hr and a concentration of ≧5 μmol/l.

[3] = target: T1, PKCβI (Homo sapiens, UniProt P05771); test: PMA-stimulated PKC translocation to the particulate fraction in HUVEC and other cell-types; type: cell-based
T1 construct: endogenous in cells; host or cells: HUVEC (and unnamed other cell-types)
T1 sequence (P05771 whole entry): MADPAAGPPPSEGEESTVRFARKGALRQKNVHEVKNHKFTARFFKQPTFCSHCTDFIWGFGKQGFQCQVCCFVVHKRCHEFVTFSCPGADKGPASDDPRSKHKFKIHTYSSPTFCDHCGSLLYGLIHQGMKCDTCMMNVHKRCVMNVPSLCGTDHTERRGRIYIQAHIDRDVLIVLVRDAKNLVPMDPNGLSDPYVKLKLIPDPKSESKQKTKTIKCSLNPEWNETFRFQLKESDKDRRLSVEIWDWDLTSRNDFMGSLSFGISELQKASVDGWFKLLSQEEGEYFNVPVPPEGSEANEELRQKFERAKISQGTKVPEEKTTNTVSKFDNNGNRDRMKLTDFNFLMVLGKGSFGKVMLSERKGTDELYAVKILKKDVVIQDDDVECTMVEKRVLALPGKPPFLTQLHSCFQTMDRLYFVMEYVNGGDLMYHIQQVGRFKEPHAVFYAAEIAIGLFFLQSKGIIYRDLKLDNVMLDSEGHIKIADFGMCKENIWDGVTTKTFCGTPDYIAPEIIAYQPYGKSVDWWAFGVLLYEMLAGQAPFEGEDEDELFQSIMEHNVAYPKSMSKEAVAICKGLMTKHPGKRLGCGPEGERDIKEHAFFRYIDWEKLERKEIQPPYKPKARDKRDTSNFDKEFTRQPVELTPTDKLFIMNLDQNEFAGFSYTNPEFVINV

[4] = target: T2, PKCβII (Homo sapiens, UniProt P05771); test: as above; type: cell-based
T2 construct: endogenous in cells; host or cells: HUVEC (and unnamed other cell-types)
T2 sequence (P05771 1-673 isoform P05771-2): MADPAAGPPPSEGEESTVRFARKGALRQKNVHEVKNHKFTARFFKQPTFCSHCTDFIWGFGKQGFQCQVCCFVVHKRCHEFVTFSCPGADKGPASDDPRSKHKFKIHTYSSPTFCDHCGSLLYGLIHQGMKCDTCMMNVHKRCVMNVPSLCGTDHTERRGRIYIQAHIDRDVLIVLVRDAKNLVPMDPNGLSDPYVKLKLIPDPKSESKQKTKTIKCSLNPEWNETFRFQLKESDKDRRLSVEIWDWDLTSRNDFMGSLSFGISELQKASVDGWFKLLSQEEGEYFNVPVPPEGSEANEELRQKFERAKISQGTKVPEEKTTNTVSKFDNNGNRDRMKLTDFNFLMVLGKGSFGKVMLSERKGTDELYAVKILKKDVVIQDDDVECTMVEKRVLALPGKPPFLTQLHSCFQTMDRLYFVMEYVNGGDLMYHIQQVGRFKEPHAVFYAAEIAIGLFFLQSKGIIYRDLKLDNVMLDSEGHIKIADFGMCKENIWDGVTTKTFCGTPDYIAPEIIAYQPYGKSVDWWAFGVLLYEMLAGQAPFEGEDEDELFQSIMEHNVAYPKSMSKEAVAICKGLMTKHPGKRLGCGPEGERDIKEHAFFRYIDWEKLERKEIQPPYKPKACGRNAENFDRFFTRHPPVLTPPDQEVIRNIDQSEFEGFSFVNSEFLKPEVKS
Experimental: (§1) MP5 had minimal effects (<15%) on PKCε translocation and no effects on the translocation of the other PKC isozymes in Jurkat cells.
Mesangial cells express PKCα, βI, ε, δ and ζ (Koya et al, 1997 supra, Kikkawa et al, 1994 supra), and βII at lower levels (Koya et al, 1997 supra). To examine the effect of MP5 on the ability of other PKC isozymes in mesangial cells to translocate to the particulate fraction, the cells were pre-treated with MP5 before being stimulated with PMA (1-100 nM). This agent stimulated the translocation of all the classical and novel isozymes. […] The studies were extended to other isozymes. For PKCγ (expressed mainly by neuronal cells), the effect of MP5 are tested using PMA-stimulated PC12 rat pheochromocytoma cells. To assess the effect of MP5 on the activation of atypical PKC isozymes such as PKCζ NIH3T3 cells were pre-treated with MP5 before being stimulated with tumour necrosis factor ? (1000 U/ml) which stimulates PKCζ activity in these cells (Lallena et al, 1999 supra). The isozyme were immunoprecipitated (antibody from Santa Cruz) and kinase activity was determined using a PKCε pseudosubstrate peptide or myelin basic protein as a substrate (Suzuma et al, 2002 supra).

[5] = target: T3, PKCε (Homo sapiens, UniProt Q02156); test: PKC translocation in Jurkat cells; type: cell-based
T3 construct: endogenous in cells; host or cells: Jurkat
T3 sequence (Q02156 whole entry): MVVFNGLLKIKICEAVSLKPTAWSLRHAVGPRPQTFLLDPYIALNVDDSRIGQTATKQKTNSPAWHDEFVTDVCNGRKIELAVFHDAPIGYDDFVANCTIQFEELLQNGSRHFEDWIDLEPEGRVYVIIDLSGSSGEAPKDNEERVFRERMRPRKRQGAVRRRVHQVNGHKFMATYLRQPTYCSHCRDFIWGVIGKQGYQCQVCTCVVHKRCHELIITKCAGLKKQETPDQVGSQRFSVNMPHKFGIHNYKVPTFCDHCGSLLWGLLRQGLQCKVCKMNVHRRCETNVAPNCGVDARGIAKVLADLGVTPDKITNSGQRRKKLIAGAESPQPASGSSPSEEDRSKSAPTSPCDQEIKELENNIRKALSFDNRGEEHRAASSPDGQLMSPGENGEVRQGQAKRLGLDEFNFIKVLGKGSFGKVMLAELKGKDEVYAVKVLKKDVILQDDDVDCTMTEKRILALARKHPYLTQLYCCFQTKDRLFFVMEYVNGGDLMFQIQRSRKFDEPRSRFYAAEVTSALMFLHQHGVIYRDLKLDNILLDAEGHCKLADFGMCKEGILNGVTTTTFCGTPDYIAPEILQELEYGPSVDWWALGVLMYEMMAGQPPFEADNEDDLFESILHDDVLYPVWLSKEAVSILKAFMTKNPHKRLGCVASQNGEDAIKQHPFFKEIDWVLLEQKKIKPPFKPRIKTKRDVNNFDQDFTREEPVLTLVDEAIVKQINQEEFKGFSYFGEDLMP
Source text: as §1

[6] = test system: other PKC isozymes; test: PKC translocation in Jurkat cells; type: cell-based
Source text: as §1

[7] = test system: PKCβI; test: PKCβ1 translocation in glucose-stimulated mesangial cells (Western blot); type: cell-based; conditions: 1 hr pre-treatment, 25 mM glucose 5 days
Experimental: (§2) FIG. 9 is a diagrammatic representation showing the suppression of PKCβ1 translocation in glucose-stimulated mesangial cells (a) and in the glomeruli of a diabetic rat (b). Mesangial cells were pre-treated with MP5 or vehicle (ethanol) for 1 hr before being incubated with 25 mM glucose for 5 days. Male rats were rendered diabetic with streptozotocin and MP5 or vehicle (ethanol) was administered for 7 days after confirmation of diabetes. The cells and glomeruli were sonicated and particulate fraction-associated PKCβ1 was determined by Western blot analysis. High glucose and diabetes increased PKCβ1 in the particulate fraction.
Mesangial cells are prepared as previously described (Couper et al, 1994 supra).
Four groups of cells were set up: 5.5 mM glucose+ethanol (0.1% w/v or v/v), 5.5 mM glucose+MP5 (20 μM which is effective in the studies), 25 mM glucose+ethanol and 25 mM glucose+MP5. […] Cells were pre-incubated (30 min-24 h) with MP5 before being challenged with glucose for 4 days. […] Cells are then be washed, sonicated and the amount of each PKC isozyme in the particulate fraction determined by Western blot analysis. The soluble fractions were kept for estimation of soluble PKC (non-particulate fraction-associated). […] The cells remained viable throughout the period of study as judged by the trypan blue exclusion test. […]

[8] = target: T4, PKCβI (Rattus norvegicus, UniProt P68403); test: PKCβ1 translocation in the glomeruli of streptozotocin-diabetic rats; type: in vivo; conditions: administered for 7 days after confirmation of diabetes
T4 construct: from tissue; host or cells: glomeruli of streptozotocin-diabetic male rats
T4 sequence (P68403 whole entry): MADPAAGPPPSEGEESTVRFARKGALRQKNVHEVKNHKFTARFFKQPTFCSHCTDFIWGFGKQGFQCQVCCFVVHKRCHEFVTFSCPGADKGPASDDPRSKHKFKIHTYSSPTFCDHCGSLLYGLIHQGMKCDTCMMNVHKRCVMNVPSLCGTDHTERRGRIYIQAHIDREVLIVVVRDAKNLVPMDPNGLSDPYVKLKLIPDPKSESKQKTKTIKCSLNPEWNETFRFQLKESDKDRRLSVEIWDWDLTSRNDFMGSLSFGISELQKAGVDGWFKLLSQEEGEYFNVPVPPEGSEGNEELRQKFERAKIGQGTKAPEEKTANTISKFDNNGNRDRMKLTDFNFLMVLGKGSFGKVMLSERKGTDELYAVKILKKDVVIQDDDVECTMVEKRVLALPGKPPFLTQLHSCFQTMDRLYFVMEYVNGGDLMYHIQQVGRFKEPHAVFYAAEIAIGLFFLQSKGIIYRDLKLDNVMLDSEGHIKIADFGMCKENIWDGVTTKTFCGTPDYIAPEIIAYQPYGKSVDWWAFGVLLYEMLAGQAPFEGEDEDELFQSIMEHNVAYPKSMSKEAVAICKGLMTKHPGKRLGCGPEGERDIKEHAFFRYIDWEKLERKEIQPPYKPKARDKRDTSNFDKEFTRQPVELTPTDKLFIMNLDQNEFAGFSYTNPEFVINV
Experimental: as §2

[9] = Long term in vivo tolerability of MP5; parameters: species or system rats; conditions: up to 100 mg/kg
Experimental: as §1
The ability of MP5 to inhibit renal TGFβ production and albuminuria in streptozotocin-induced diabetic Sprague-Dawley rats were investigated. MP5 is non toxic to rats given at up to 100 mg/kg chronically as determined by liver and kidney biochemical and electrolyte markers. […] Animals (130-150 g) were placed randomly in one of five groups: control, MP5-treated, diabetic, diabetic+MP5 and diabetic+MP1. Power analysis ([…], β=0.1) (expecting at least a 50% reduction and an SD of 30% of mean) indicate that 7-8 animals/group were needed. The rats were rendered diabetic using streptozotocin (65 mg/kg. I.P) and blood glucose levels were measured 48 hr later to confirm the onset of diabetes (glucose>15 mM). […] Blood glucose was measured every week. […] At the end of the MP5 treatment period, rats were sacrificed and the level of TGFβ mRNA (Kikkawa et al 1994 supra) in the glomeruli were determined by slot blot analysis (Ferrante et al, 1997 supra) and normalized by comparison with the level of GAPDH (glyceraldehyde 3-phosphate dehydrogenase) mRNA in the same sample (Ferrante et al, 1997 supra). The amount of albumin in the urine were measured by using a commercial kit (EXOCELL Inc. Philadelphia, Pa.). […]

[10] = Tissue distribution after oral administration; type: in vivo
[11] = 100 mg/kg ip, 30 min prior to formalin, mean of 5 animals

For `CC/C=C\C/C=C\C/C=C\CCCCCCCCOCC(=O)O` [MP5, β-oxa-21:3n-3], the “% inhibition of pain response, Phase I (0-5 mins)” value [1, 11] was 34%, the “% inhibition of pain response, Phase II (15-20 mins)” value [1, 11] was 37% and the “Pain reduction in formalin test” value ([1]; intraperitoneal, 30 min before pain stimulus) was “much less effective in inhibiting pain”. For the same compound, the “Inhibition of TNF-α-enhanced neutrophil adhesion to HUVEC” value [2] was “inhibited their ability to be stimulated”, the “PMA-stimulated translocation of PKCβI to the particulate fraction” value ([3]; HUVEC and other cell-types) was “inhibited PMA-stimulated translocation” and the “Selectivity between PKCβI and PKCβII” value ([3]; HUVEC, depending on the concentrations used) was “able to distinguish between PKCβI and PKCβII”. The “PMA-stimulated translocation of PKCβII to the particulate fraction” value [4] was “inhibited PMA-stimulated translocation”, the “Effect on PKCε translocation” value [5] was < 15% and the “Effect on translocation of the other PKC isozymes” value [6] was “no effects”. The “Translocation of PKCβI to a particulate fraction, glucose-stimulated mesangial cells” value [7] was “prevent the translocation of PKCβI; also recorded: inhibited this effect”, the “Translocation of PKCβI to a particulate fraction, glomeruli of diabetic rats” value [8] was “prevent the translocation of PKCβI; also recorded: inhibited this effect” and the “Liver and kidney function and electrolyte levels” value ([9]; chronic) was “no adverse effects on liver and kidney function and electrolyte levels; also recorded: non toxic”. For the same compound, the “Well-being of the animals (coat appearance, activity/mobility)” value ([9]; up to three months) was “no visible adverse effects” and the “Presence in blood, organs and tissues after oral administration” value [10] was “present in the blood and various organs; also recorded: taken up by tissues, including kidneys, and incorporated into phospholipids”.

From patent publication US20090215895A1, “Therapeutic and carrier molecules” (PEPLIN BIOLIPIDS PTY LTD, priority 2004, published 2009)
